The structures appear in SMILES notation.

The subject of one assay is HCC 1806 cells. As to the kind of experiment: Cell proliferation inhibitory effect on human breast cancer cell line (crystal violet, 72 hours). The settings on record: Homo sapiens, HCC1806, 72 h, read-out: Cell growth suppression IC50. The assay is classed as cell-based. The procedure:
Human derived breast cancer cell line HCC 1806 cells were daily passaged at a cell density not exceeding 80% in ATCC recommended Roswell Park Memorial Institute medium (RPMI-1640) containing 10% fetal bovine serum (FBS). In order to start the test of cell proliferation inhibitory activity, HCC 1806 cells were suspended in the above medium, after seeing at 180 μL in each well of a 96-well flat bottom plate so that the number of cells per well was 2,000, the cells were cultured at 37° C. for 1 day in an incubator containing 5% carbon dioxide gas. On the next day, the test compound was dissolved in DMSO, and 20 μL of a drug additive solution diluted serially with distilled water to 10 times of the final concentration was added to each well of the culture plate of the cells, and the cells were cultured at 37° C. for 72 hours in an incubator containing 5% carbon dioxide gas. After culturing for 72 hours, 20 μL of glutaraldehyde was added to each well and allowed to stand for 30 minutes, then the plate was washed 10 times with water and was dried. 100 μL of a stain solution (0.05% crystal violet in a 20% methanol solution) was added to each well and allowed to stand for 30 minutes, then the plate was washed 10 times with water and was dried. 100 μL of an extract solution (0.1 N NaH2PO4: 100% ethanol=1:1) was added to each well and mixed, and the mixture was measured at a wavelength of 540 nm using a plate reader (MTP-450 manufactured by Corona Electric Co., Ltd.). The growth inhibition rate was calculated from the following formula, and the concentration (IC50 (μM)) of a test compound inhibiting 50% was determined. Growth inhibition rate (%)={(C−B)−(T−B)}/(C−B)×100
T: Absorbance of well to which test compound was added
C: Absorbance of wells to which no test compound was added
B: Absorbance of wells to which no cell suspension was added
`C[C@H](c1c(F)ccc2ccccc12)[C@H](NS(=O)(=O)c1ccc(Cl)c2c1OCCC2F)c1n[nH]c(=O)o1` (mixture of isomers) [Example 292, 5-chloro-4-fluoro-N-((1S,2R)-2-(2-fluoronaphthalen-1-yl)-1-(5-oxo-4,5-dihydro-1,3,4-oxadiazol-2-yl)propyl)chroman-8-sulfonamide]: the IC50 stood at 750 nM.

In the case of `Cc1c(Cl)ccc(F)c1[C@@H](C)[C@H](NS(=O)(=O)c1ccc(Cl)c2c1OCCC2(C)N)c1n[nH]c(=O)o1` (mixture of isomers) [Example 328, 4-amino-5-chloro-N-((1S,2R)-2-(3-chloro-6-fluoro-2-methylphenyl)-1-(5-oxo-4,5-dihydro-1,3,4-oxadiazol-2-yl)propyl)-4-methylchroman-8-sulfonamide], the IC50 came to 410 nM.

Take `Cc1ccc(F)c([C@@H](C)[C@H](NS(=O)(=O)c2ccc(Cl)c3c2OCCC3(O)C(F)(F)F)c2n[nH]c(=O)o2)c1C` (single isomer, unassigned) [Example 220A]: the IC50 amounted to 370 nM.

In the case of `Cc1ccc(F)c([C@@H](C)[C@H](NS(=O)(=O)c2ccc(F)c3c2OCCC3(C)O)c2n[nH]c(=O)o2)c1C` (single isomer, unassigned) [Example 224A], the IC50 came to 100 nM.

On to `Cc1ccc(F)c([C@@H](C)[C@H](NS(=O)(=O)c2ccc(F)c3c2OCCC3(C)O)c2n[nH]c(=O)o2)c1C` (single isomer, unassigned) [Example 224B], for which the IC50 stood at 770 nM.

With `Cc1c(Br)ccc(F)c1[C@@H](C)[C@H](NS(=O)(=O)c1ccc(F)c2c1OCCC2(C)O)c1n[nH]c(=O)o1` (single isomer, unassigned) [Example 227A], the 50% inhibitory concentration (IC50) turned out to be 190 nM.

In the case of `Cc1c(Cl)ccc(F)c1[C@@H](C)[C@H](NS(=O)(=O)c1ccc(F)c2c1OCCC2(C)O)c1n[nH]c(=O)o1` (single isomer, unassigned) [Example 229A], the IC50 amounted to 310 nM.

As for `C[C@H](c1c(F)ccc2ccccc12)[C@H](NS(=O)(=O)c1ccc(Cl)c2c1OCCC2O)c1n[nH]c(=O)o1` (single isomer, unassigned) [Example 234A], the IC50 was determined as 570 nM.

Regarding `Cc1c(Cl)ccc(F)c1[C@@H](C)[C@H](NS(=O)(=O)c1ccc(Cl)c2c1OCCC2O)c1n[nH]c(=O)o1` (single isomer, unassigned) [Example 238A], the IC50 turned out to be 440 nM.

For `CCc1ccc(F)c([C@@H](C)[C@H](NS(=O)(=O)c2ccc(Cl)c3c2OCCC3O)c2n[nH]c(=O)o2)c1C` (single isomer, unassigned) [Example 239A], the half-maximal inhibitory concentration (IC50) was determined as 720 nM.

For `Cc1ccc(F)c([C@@H](C)[C@H](NS(=O)(=O)c2ccc(C(F)(F)F)c3c2OCCC3O)c2n[nH]c(=O)o2)c1C` (single isomer, unassigned) [Example 244A], the IC50 is 720 nM.

For `Cc1c(Cl)ccc(F)c1[C@@H](C)[C@H](NS(=O)(=O)c1ccc(Cl)c2c1OCCC2(C)N)c1n[nH]c(=O)o1` (single isomer, unassigned) [Example 330A], the IC50 worked out at 240 nM.

Regarding `C[C@H](c1c(F)ccc2ccccc12)[C@H](NS(=O)(=O)c1ccc(Cl)cc1C(N)=O)c1n[nH]c(=O)o1` [Example 6, 5-chloro-2-(N-((1S,2R)-2-(2-fluoronaphthalen-1-yl)-1-(5-oxo-4,5-dihydro-1,3,4-oxadiazol-2-yl)propyl)sulfamoyl)benzamide], the IC50 stood at 290 nM.

Consider `Cc1ccc(S(=O)(=O)N[C@H](c2n[nH]c(=O)o2)[C@H](C)c2c(F)ccc(C)c2C)c(C(N)=O)c1` [Example 10, 2-(N-((1S,2R)-2-(3-6-fluoro-2,3-dimethylphenyl)-1-(5-oxo-4,5-dihydro-1,3,4-oxadiazol-2-yl)propyl)sulfamoyl)-5-methylbenzamide], for which the half-maximal inhibitory concentration (IC50) was 560 nM.

In the case of `Cc1ccc(S(=O)(=O)N[C@H](c2n[nH]c(=O)o2)[C@H](C)c2c(F)ccc3ccccc23)c(C(N)=O)c1` [Example 12, 2-(N-((1S,2R)-2-(2-Fluoronaphthalen-1-yl)-1-(5-oxo-4,5-dihydro-1,3,4-oxadiazol-2-yl)propyl)sulfamoyl)-5-methylbenzamide], the IC50 turned out to be 500 nM.

In the case of `Cc1cc(F)c(F)c([C@@H](C)[C@H](NS(=O)(=O)c2ccc(Cl)cc2C(N)=O)c2n[nH]c(=O)o2)c1C` [Example 13, 5-chloro-2-(N-((1S,2R)-2-(2,3-difluoro-5,6-dimethylphenyl)-1-(5-oxo-4,5-dihydro-1,3,4-oxadiazol-2-yl)propyl)sulfamoyl)benzamide], the IC50 was 310 nM.

Consider `C[C@H](c1c(F)ccc2ccccc12)[C@H](NS(=O)(=O)c1ccc(Br)cc1C(N)=O)c1n[nH]c(=O)o1` [Example 15, 5-bromo-2-(N-((1S,2R)-2-(2-fluoronaphthalen-1-yl)-1-(5-oxo-4,5-dihydro-1,3,4-oxadiazol-2-yl)propyl)sulfamoyl)benzamide], for which the IC50 came out at 400 nM.

On to `CCc1ccc(S(=O)(=O)N[C@H](c2n[nH]c(=O)o2)[C@H](C)c2c(F)ccc(C)c2C)c(C(N)=O)c1` [Example 18, 5-Ethyl-2-(N-((1S,2R)-2-(6-fluoro-2,3-dimethylphenyl)-1-(5-oxo-4,5-dihydro-1,3,4-oxadiazol-2-yl)propyl)sulfamoyl)benzamide], for which the IC50 worked out at 580 nM.

With `Cc1ccc(F)c([C@@H](C)[C@H](NS(=O)(=O)c2ccc(Cl)nc2C(N)=O)c2n[nH]c(=O)o2)c1C` [Example 19, 6-Chloro-3-(N-((1S,2R)-2-(6-fluoro-2,3-dimethylphenyl)-1-(5-oxo-4,5-dihydro-1,3,4-oxadiazol-2-yl)propyl)sulfamoyl)picolinamide], the IC50 was found to be 940 nM.

Staying with this assay, now noted: read-out: Cell growth suppression IC50.
With `[2H]C([2H])([2H])C1(O)CCOc2c(S(=O)(=O)N[C@H](c3n[nH]c(=O)o3)[C@H](C)c3c(F)ccc(C)c3C)ccc(Cl)c21` (single isomer, unassigned) [Example 200B], the IC50 was found to be 460 nM.

Regarding `Cc1ccc(F)c([C@@H](C)[C@H](NS(=O)(=O)c2ccc(Cl)c3c2OCCC3(C)O)c2n[nH]c(=O)o2)c1C` (single isomer, unassigned) [Example 207A], the IC50 stood at 70 nM.

With `Cc1ccc(F)c([C@@H](C)[C@H](NS(=O)(=O)c2ccc(Cl)c3c2OCCC3(C)O)c2n[nH]c(=O)o2)c1C` (single isomer, unassigned) [Example 207B], the IC50 was 250 nM.

Take `COc1c(S(=O)(=O)N[C@H](c2n[nH]c(=O)o2)[C@H](C)c2c(F)ccc(C)c2C)ccc(Cl)c1C(C)O` (single isomer, unassigned) [Example 208A]: the IC50 came out at 330 nM.

Consider `COc1c(S(=O)(=O)N[C@H](c2n[nH]c(=O)o2)[C@H](C)c2c(F)ccc(C)c2C)ccc(Cl)c1C(C)O` (single isomer, unassigned) [Example 208B], for which the IC50 is 50 nM.

As for `Cc1c(Cl)ccc(F)c1[C@@H](C)[C@H](NS(=O)(=O)c1ccc(Cl)c2c1OCCC2(C)O)c1n[nH]c(=O)o1` (single isomer, unassigned) [Example 209B], the IC50 worked out at 820 nM.

`Cc1ccc(F)c([C@@H](C)[C@H](NS(=O)(=O)c2ccc(Cl)c3c2OCCC3(O)C(F)(F)F)c2n[nH]c(=O)o2)c1C` (single isomer, unassigned) [Example 220B]: the IC50 came to 500 nM.

Regarding `Cc1c(Br)ccc(F)c1[C@@H](C)[C@H](NS(=O)(=O)c1ccc(Cl)c2c1OCCC2(C)O)c1n[nH]c(=O)o1` (single isomer, unassigned) [Example 222B], the IC50 came out at 670 nM.

Turning to `[2H]C([2H])([2H])C1(O)CCOc2c(S(=O)(=O)N[C@H](c3n[nH]c(=O)o3)[C@H](C)c3c(F)ccc(Br)c3C)ccc(Cl)c21` (single isomer, unassigned) [Example 226A], the IC50 worked out at 80 nM.

For `[2H]C([2H])([2H])C1(O)CCOc2c(S(=O)(=O)N[C@H](c3n[nH]c(=O)o3)[C@H](C)c3c(F)ccc(Br)c3C)ccc(Cl)c21` (single isomer, unassigned) [Example 226B], the IC50 is 300 nM.

For the compound `Cc1ccc(F)c([C@@H](C)[C@H](NS(=O)(=O)c2ccc(F)c3c2OCCC3O)c2n[nH]c(=O)o2)c1C` (single isomer, unassigned) [Example 230A], the IC50 is 290 nM.

As to `Cc1ccc(F)c([C@@H](C)[C@H](NS(=O)(=O)c2ccc(F)c3c2OCCC3O)c2n[nH]c(=O)o2)c1C` (single isomer, unassigned) [Example 230B], the IC50 stood at 780 nM.

As for `Cc1ccc(F)c([C@@H](C)[C@H](NS(=O)(=O)c2ccc(Cl)c3c2OCCC3O)c2n[nH]c(=O)o2)c1C` (single isomer, unassigned) [Example 235B], the half-maximal inhibitory concentration (IC50) was determined as 400 nM.

Consider `Cc1c(Br)ccc(F)c1[C@@H](C)[C@H](NS(=O)(=O)c1ccc(Cl)c2c1OCCC2O)c1n[nH]c(=O)o1` (single isomer, unassigned) [Example 243A], for which the IC50 amounted to 290 nM.

Regarding `Cc1c(Br)ccc(F)c1[C@@H](C)[C@H](NS(=O)(=O)c1ccc(Cl)c2c1OCCC2O)c1n[nH]c(=O)o1` (single isomer, unassigned) [Example 243B], the IC50 was determined as 700 nM.

For orientation: IC50 means the concentration that gives 50% inhibition.

Source of the values: patent publication US10889555B2, “Sulfonamide compound or salt thereof” (Taiho Pharmaceutical Co., Ltd., priority 2016, dated 2021).
